Results on 13 molecules are retold here after article PMC6201879, “N-substituted phenylbenzamides of the niclosamide chemotype attenuate obesity related changes in high fat diet fed mice” (PLoS ONE, 2018).

Data set [1] concerns Salmonella typhimurium TA98. Description: Ames assay, strain TA98. To be noted: Positive Control chemical; concentration not given; without S9.
In a further data set the test system is PH5CH8 liver cells. Description: High-throughput hepatic de novo lipogenesis (DNL) assay, high content imaging of steatotic phenotype. In kind it is cell-based, human.
For data set [2], the system named is HEK293 cells stably transduced with the human OCT3 transporter. Description: Cellular oxygen consumption rate (OCR), MitoXpress Xtra. To be noted: HEK293 cells expressing human OCT3; for change in respiration / oxygen consumption rate (OCR): compared to DMSO control, 2 hours; for concentration dependence of OCR change: four concentrations. It counts as cell-based. The procedure:
Oxygen consumption rate experiments were performed by ZenBio, Inc (RTP, NC). HEK293 cells stably transduced with the human OCT3 transporter were plated in black-walled microclear plates (Greiner-BioOne) at 60,000 cells per well in growth medium. Cells were incubated overnight to allow attachment before growth medium was removed and replaced with 150μL of assay medium containing compound dilutions. Four concentrations of each compound were prepared and transferred to the empty wells. Control wells contained assay medium only or assay medium containing […] (FCCP) at 1μM. Ten μL of MitoXpress Xtra reagent was added to each test well and 100μL of pre-warmed mineral oil was overlaid in each well to create a seal. The plates were immediately read on a FLUOstar Omega (BMG) using dual read Time Resolved Fluorescence (TR-F) for 2 hours, with measurements taken every 2 minutes using 340nm and 650nm as excitation and emission wavelengths respectively. For lifetime analysis, two measurements per well were taken: 1) delay of 30μs, with a window of 30μs; and 2) delay of 70μs with a window of 30μs. Background TRF values were subtracted from all readings. A ratiometric analysis was performed to determine changes in the Lifetime fluorescence signal: Lifetime (μs)[T] = (D2-D1)/ln(W1/W2), where D is delay; W is fluorescence window value at each time point. Lifetime slopes were calculated using each Lifetime measurement over time. Data are presented as mean ± standard error (SE). The differences between the control (DMSO) and compound treated wells were analyzed using the Student’s t-test. A value of p≤0.05 was considered statistically significant. […]

Data set [3] has as its system Phosphorylated AMPK (Thr-172). Description: High-throughput phosphorylated AMPK (Thr-172) TR-FRET assay in HepG2 cells. It counts as cell-based, human. To be noted: HepG2 TR-FRET dose response between 0.625 and 10 μM, 4 hours; also Western blot. The procedure:
Phosphorylated AMPK (Thr-172) TR-FRET Assay Kit was purchased from CisBio (Bedford MA). HepG2 [HB-8065] cells were trypsinized, harvested and counted using Countess II FL automated cell counter (Thermo Fisher Scientific). Cells were then seeded in Poly-D-Lysine coated 96-well black optical plates at a concentration of 10,000 cells per well in 50μL growth medium. After 24-hours, the media was removed and replaced with 50μL of fresh growth media containing compounds. Five concentrations of each compound were prepared, ranging from 10 to 0.625 μM and applied to columns 2–11 of the cell plate. Control wells contained DMSO (column 1-minimum response control) or 500199 (column 12-maximum response control). The final DMSO concentration was 0.45%. Cells were cultured for 4 hours before cells were lysed in 50μL of lysis buffer for 30 minutes at room temperature according to assays protocol. Following lysis, 16μL of lysate was transferred to white 384 well small volume assay plate and 4μL of antibody dyes were added per assay protocol.
Following overnight incubation, quantitation was performed on a PHERAstar (BMG), using the HTRF protocol with an excitation wavelength of 337nm and emission wavelengths of 665nm and 620nm. The ratio between emission spectra (665/620) was assessed for each well individually and averaged for triplicate samples. Data are presented as mean ratio ± SE. The differences between the control (DMSO) and the compound treated wells were analyzed using two-way ANOVA and Dunnett’s post hoc test. A value of p<0.05 was considered to be significant.
Fig 5 Validation of AMPK pathway activation by phenylbenzamide derivatives in HepG2 cells. A) Cells were seeded at 10,000 cells per well 24 hours prior to treating cells with indicated concentration of compound or DMSO (CTL) for 4 hours. 16μL of cell lysate was incubated with HTRF phospho-AMPK detection reagents and fluorescence emission read at 665nm and 620nm using a PHERAstar platereader. The mean and standard deviation of the HTRF Ratio from three replicate wells is shown. The unstimulated (DMSO) and positive controls lysates are shown in green and red respectively.

Data set [4] relates to phospho-AMPK Thr-172 (p-AMPK). Kind of data set: Western blot of phospho-AMPK Thr-172 in HEK293T cells. It counts as cell-based, human. To be noted: 1 and 10μM, negatives re-screened at 5 and 20 μM, 3 hours. The protocol: AMPK is a metabolic sensor that maintains cellular energy supply. As validation of these changes in lipid metabolism and cellular respiration we evaluated phospho-AMPK Thr-172 (p-AMPK) levels by Western blot in HEK293 cells treated with the phenylbenzamide derivatives. Compounds were screened at 1 and 10μM using the known uncouplers niclosamide and FCCP as positive controls (Fig 4A). […] We concluded that compounds that had little effect on oxygen consumption rates also had little effect on phosphorylation of AMPK.

Data set [5] in a line: Metabolic stability in human liver microsomes. It counts as in vitro ADME. The protocol:
(§1) Three experiments were performed with 1) 0.5mg/ml microsomes and 1mM NADPH, 2) 0.5mg/ml microsomes without NADPH and 3) 0.5mg/ml heat inactivated microsomes without NADPH in 100mM phosphate buffer, containing 5mM magnesium chloride. […] At the indicated time points, 50μl samples were removed and stopped by addition of 4 volumes of cold acetonitrile with internal standards, 100nM alprazolam, 200nM labetalol and 2μM ketoprofen. The samples were centrifuged at 3,220 g for 40 minutes and aliquots of 100μl were subsequently diluted with 100μl of ultra-pure water and analyzed by LC/MS/MS using a (Shimadzu corporation) LC system coupled to a Shimadzu Triple Quad 5500 mass spectrometer with an ESI interface. The LC system used a Waters XSelect HSS T3 C18, 2.5μm, 2.1 x 50 mm column eluted with one of two methods using mobile phases A (water, 0.1% formic acid) and B (acetonitrile, 0.1% formic acid). […] The Shimadzu Triple Quad 5500 MS was operated with the following parameters: Ion source: Turbo spray; Ionization mode: ESI; Scan type: MRM; Collision gas: 10 L/min; Curtain gas: 30 L/min; Nebulize gas: 50 L/min; Auxiliary gas: 50 L/min; Temperature: 500°C; Ionspray voltage: +5500 V (positive MRM). All experiments were performed in duplicate. Data were analyzed using Microsoft excel, and peak areas were determined from extracted ion chromatograms.

The nature of data set [6]: Metabolic stability in mouse liver microsomes. It counts as in vitro ADME. To be noted: 60 min. The procedure:
as §1

Data set [7] concerns Salmonella typhimurium TA1537. To be noted: Positive Control chemical; concentration not given; without S9.
Data set [8] concerns Salmonella typhimurium TA100. To be noted: Positive Control chemical; concentration not given; without S9.
The test system of data set [9] is Salmonella typhimurium TA1535. To be noted: Positive Control chemical; concentration not given; without S9.
Setting [10] is: S1 Table, SAR for N-Substituted Phenylbenzamides.
The mark [11] stands for this setting: S1 Table, SAR for N-Substituted Phenylbenzamides, read-out: IC50.
[12] abbreviates: Homo sapiens, PH5CH8 liver cells, 10-point dose response between 1μM and 1.9nM, read-out: IC50 (uM), inhibition of steatotic phenotype in DNL assay.
[13] abbreviates: Homo sapiens, S1 Table. SAR for N-Substituted Phenylbenzamides, read-out: IC50.
The mark [14] stands for this setting: S1 Table. SAR for N-Substituted Phenylbenzamides.
Where [15] appears, read: Homo sapiens, S1 Table, SAR for N-Substituted Phenylbenzamides, read-out: IC50.
Where [16] appears, read: 0.5mg/ml microsomes and 1mM NADPH.
The mark [17] stands for this setting: 0.5mg/ml microsomes without NADPH.
[18] abbreviates: heat inactivated microsomes without NADPH.

“And” between values parts separate entries of the source, which are not always exact repeats. Identical values can stand only once. “Also recorded” adds a separate entry of the source. Like-named read-outs stand apart in the source and are kept apart here.

With `O=[N+]([O-])c1ccc2c(c1)Cc1ccccc1-2` [Compound 2-NF, 2-nitrofluorene, reference compound], the “Mean Revertant Colony Counts TA98 S9-” value in [1] was 210.0 and 258.7.
In the case of `COC(=O)c1ccc(NC(=O)c2cc(Cl)ccc2O)c(Cl)c1` [Compound 500189, Methyl 3-chloro-4-[(5-chloro-2-hydroxybenzene)amido]benzoate], the Active/Inactive entry in the data set on PH5CH8 liver cells (setting [10]) was “Inactive”.
As to `COC(=O)c1ccc(NC(=O)c2cc(C)ccc2O)c(Cl)c1` [Compound 500828, Methyl 3-chloro-4-[(2-hydroxy-5-methylbenzene)amido]benzoate], the Active/Inactive entry in the data set on PH5CH8 liver cells (setting [10]) is recorded as “Active”. For the same molecule, the concentration for half-maximal inhibition (IC50) in the data set with PH5CH8 liver cells (setting [11]) worked out at 1.68 µM.
As for `O=C(Nc1ccc(Br)cc1Cl)c1cc(Cl)ccc1O` [Compound 500832, N-(4-Bromo-2-chlorophenyl)-5-chloro-2-hydroxybenzamide], in the data set on PH5CH8 liver cells (setting [12]), the IC50 amounted to 0.08 µM. Besides, the IC50 in the data set with PH5CH8 liver cells (setting [13]) stood at 0.0203 µM. The Active/Inactive entry in the data set with PH5CH8 liver cells (setting [14]) is “Active”. In addition, in data set [2], the “change in respiration / oxygen consumption rate (OCR)” value is listed as “significant changes” and the “concentration dependence of OCR change” value was “only significantly elevated at 1μM”. In addition, the “phosphorylation of AMPK (Figs 5 and 4D)” value in data set [3] is “stimulated phosphorylation of AMPK”.
As for `N#Cc1ccc(NC(=O)c2cc(Cl)ccc2O)c(Cl)c1` [Compound 500833, 5-Chloro-N-(2-chloro-4-cyanophenyl)-2-hydroxybenzamide], the half-maximal inhibitory concentration (IC50) in the data set with PH5CH8 liver cells (setting [12]) worked out at 0.04 µM. Also, the 50% inhibitory concentration (IC50) in the data set with PH5CH8 liver cells (setting [13]) came to 0.043 µM. Moreover, in the data set on PH5CH8 liver cells (setting [14]), the Active/Inactive result is reported as “Active”. Moreover, in [2], the “change in respiration / oxygen consumption rate (OCR)” value is “significant changes” and the “concentration dependence of OCR change” value is on record as “only significantly elevated at 1μM”. Also, the “phosphorylation of AMPK (Figs 5 and 4D)” value in [3] is given as “stimulated phosphorylation of AMPK”.
Regarding `COC(=O)c1ccc(NC(=O)c2cc(C(F)(F)F)ccc2O)c(Cl)c1` [Compound 500844, Methyl 3-chloro-4-{[2-hydroxy-5-(trifluoromethyl)benzene]amido}benzoate], the Active/Inactive result in the data set with PH5CH8 liver cells (setting [10]) is given as “Active”. Further, the half-inhibitory concentration (IC50) with PH5CH8 liver cells (setting [11]) stood at 0.07 µM.
As for `COC(=O)c1ccc(NC(=O)c2cccc(C(C)(C)C)c2O)c(Cl)c1` [Compound 600489, Methyl 4-(3-tert-butyl-2-hydroxybenzamido)-3-chlorobenzoate], the values for the half-inhibitory concentration (IC50) in the data set on PH5CH8 liver cells (setting [12]) and with PH5CH8 liver cells (setting [15]) were 0.01 µM and 0.014 µM, respectively. Also, in the data set on PH5CH8 liver cells (setting [10]), the Active/Inactive result is “Active”. In data set [4], the “phosphorylation of AMPK (p-AMPK Thr-172) by Western blot” value is “stimulated phosphorylation of AMPK only at the highest concentration”. Besides, the “change in respiration / oxygen consumption rate (OCR)” value in [2] is given as “no change in respiration; also recorded: no effect on oxygen consumption rate”. For the same molecule, the “Remaining Percentage of 60 min (%), Human, Tested Sample” value in data set [5] (setting [16]) came to 3.1%. Moreover, the “Remaining Percentage of 60 min (%), Human, Negative Control” value in [5] (setting [17]) was determined as 3.8%. Besides, the “microsomal stability” value in data set [5] (HLM and MLM, 60 min) is recorded as “completely degraded”. In addition, the “Remaining Percentage of 60 min (%), Human, Heat-inactivated Control” value in data set [5] (setting [18]) amounted to 66.6%. Also, the “Remaining Percentage of 60 min (%), Mouse, Tested Sample” value in [6] (setting [16]) is on record as 2.7%. The “Remaining Percentage of 60 min (%), Mouse, Negative Control” value in data set [6] (setting [17]) stood at 4.1%. In addition, the “Remaining Percentage of 60 min (%), Mouse, Heat-inactivated Control” value in [6] (setting [18]) was 57.6%.
`COC(=O)c1ccc(NC(=O)c2cc(C(F)(F)F)ccc2O)c(Br)c1` [Compound 600653, Methyl 4-(2-hydroxy-5-[trifluoromethyl]benzamido)-3-bromobenzoate]: the IC50 in the data set with PH5CH8 liver cells (setting [12]) is 0.27 µM. In the data set on PH5CH8 liver cells (setting [15]), the 50% inhibitory concentration (IC50) was 0.267 µM. Also, the Active/Inactive result in the data set with PH5CH8 liver cells (setting [10]) is recorded as “Active”. Further, in data set [2], the “change in respiration / oxygen consumption rate (OCR)” value is listed as “significant changes” and the “concentration dependence of OCR change” value is reported as “dose dependent increase in OCR”. In addition, the “phosphorylation of AMPK (Figs 5 and 4D)” value in [3] is reported as “stimulated phosphorylation of AMPK”.
`COc1ccc(O)c(C(=O)Nc2ccc(C(=O)O)cc2C)c1` [Compound 600657, 4-(2-Hydroxy-5-methoxybenzamido)-3-methylbenzoic Acid]: the Active/Inactive result in the data set on PH5CH8 liver cells (setting [10]) was “Active”. In [4], the “phosphorylation of AMPK (p-AMPK Thr-172) by Western blot” value is given as “no detectable changes in pAMPK levels”. The “change in respiration / oxygen consumption rate (OCR)” value in data set [2] was “no change in respiration; also recorded: did not appear to stimulate phosphorylation of AMPK or increase oxygen consumption rate”.
For `N#CC(C#N)=NNc1ccc(OC(F)(F)F)cc1` [FCCP, carbonyl cyanide-p-trifluoromethoxyphenylhydrazone, reference compound], the “change in respiration / oxygen consumption rate (OCR)” value in [2] was “increased OCR”.
For the molecule `COc1ccc2nc3cc(Cl)ccc3c(NCCCNCCCl)c2c1` [ICR-191, reference compound], the “Mean Revertant Colony Counts TA-1537 S9-” value in [7] is 72.3 and 73.0.
`[N-]=[N+]=[N-].[Na+]` [SA, Sodium Azide, reference compound]: the “Mean Revertant Colony Counts TA-100 S9-” value in data set [8] is 133.7 and 120.0. Further, the “Mean Revertant Colony Counts TA-1535 S9-” value in data set [9] came to 103.3.
For `CCC/C=C/C/C=C/C=C/C=N/NN=O` [Triacsin C, reference compound], the “reduced steatosis (steatotic phenotype in DNL assay)” value with PH5CH8 liver cells (PH5CH8, assay validation) turned out to be 92 ± 19%.
